Data as given in patent US20050054629A1, “Compounds and methods of treating cell proliferative diseases” (priority 2002, published 2005).

Key:
H460 lung carcinoma = experiment: Cytotoxicity assay (MTT), 6 days; format: cell-based; settings: Homo sapiens, NCI-H460, 144 h, 6 days of treatment, read-out: Toxicity 6d (IC 50, μM) H460
Excerpt: (§1) Four human tumoral cell lines, namely HCT116 colon adenocarcinoma, H460 lung carcinoma, MCF-7 and MDA-MB-231 breast carcinoma cell lines, and three immortalized but non tumorigenic cell lines, namely NIH3T3 mouse fibroblasts and human breast-derived MCF10-A and MRC-5 were purchased at ATCC and cultured according to their recommendations. In order to determine the cytotoxicity associated with one compound, a microculture tetrazolium assay (MTT), as described by Carmichael et al (Cancer Res, 1996) with modifications, was used. Briefly, 5.10^3 or 2.10^4 cells were seeded per well in 24-well plates 24 hours before drug addition. Cells were treated with 0, 1, 10, 17.5, 25 and 50 μM of compound solubilized in DMSO, adjusting the total volume of DMSO (Dimethylsulfoxide) to 1%. Forty-eight hours or 6 days after treatment, the medium was replaced by PBS containing 0.5 mg/ml MTT (Sigma) and cells were incubated for 3 more hours at 37° C. before solubilization of formazan crystals in 100% DMSO. Absorbance was measured using a spectrophotometer at a wavelength of 550 nm. Cell surviving fraction and 50% inhibitory concentration were calculated. All assays were performed in triplicate.

MCF-7 breast carcinoma = experiment: Cytotoxicity assay (MTT), 6 days; format: cell-based; settings: Homo sapiens, MCF7, 144 h, 6 days of treatment, read-out: Toxicity 6d (IC 50, μM) MCF7
Excerpt: as §1

[1] = test system: MDA-MB-231 breast carcinoma; experiment: Cytotoxicity assay (MTT), 6 days; format: cell-based; settings: Homo sapiens, MDA-MB-231, 144 h, 6 days of treatment, read-out: Toxicity 6d (IC 50, μM) MDA231
Excerpt: as §1

[2] = test system: HCT116 colon adenocarcinoma; experiment: Cytotoxicity assay (MTT), 6 days; format: cell-based, human; settings: Homo sapiens, HCT-116, 144 h, 6 days of treatment, read-out: Toxicity 6d (IC 50, μM) HCT116
Excerpt: as §1

NIH3T3 mouse fibroblasts = experiment: Cytotoxicity assay (MTT), 6 days; format: cell-based; settings: NIH3T3, 144 h, 6 days of treatment, read-out: Toxicity 6d (IC 50, μM) NIH3T3
Excerpt: as §1

MDA-MB-231 cells = experiment: Matrigel invasion assay (Boyden chamber); format: cell-based, human; settings: MDA-MB-231, Boyden chamber, matrigel
Procedure: Chemoinvasion assay was performed in Boyden chamber as described by Albini et al (Cancer Res, 1987) with some modifications. Polycarbonate membranes with 8 μm pores were coated with matrigel (125 μg/cm^2) at room temperature for 48 h. Two hours before experiments, the matrix was […] with serum-free medium containing 0.1% BSA.
One day after seeding, 10^6 MDA-MB-231 cells were treated overnight with different concentrations of compounds (1, 10, 17.5, 25 and 50 μM). Cells were collected with Versene (Invitrogen), counted with trypan blue exclusion, rinsed twice in serum-free medium containing 0.1% BSA and resuspended in serum-free medium containing 0.1% BSA plus the appropriate concentration of compound. 10^5 treated cells were placed in the upper chamber. Medium containing 10% of FBS plus the appropriate concentration of compound was placed in the lower chamber as a chemoattractant. The Boyden chamber was incubated 6 hours at 37° C. before the cells were fixed and stained with Diff-Quick (Dade-Berhing). Cells on the upper part of the filters were removed using a cotton swab. Cells on the underside of the filters were visualised and counted under light microscope.

cell architecture = experiment: Cell architecture modification, phase contrast; format: cell-based; design: key: −: no effect of the compound was observed; +: an effect of the compound was observed

Row | Compound | IC50 (H460 lung carcinoma) | IC50 (MCF-7 breast carcinoma) | IC50 [1] | IC50 [2] | melting point | also measured
1 | O=C(O)c1cc(=O)c(OCCCCCOc2ccc(Cl)c(Cl)c2)co1 [EH6600, 5-[5-(3,4-Dichlorophenyloxy)pentyloxy]-4-oxo-4H-pyran-2-carboxylic acid] | > 50 µM | 30 µM | > 25 µM | > 50 µM |  | 
2 | C/C=C/c1oc(C(=O)O)cc(=O)c1OCCCCCOc1ccc(Cl)c(Cl)c1 [EH10501] | > 50 µM | > 50 µM | > 50 µM | > 50 µM |  | IC50 (NIH3T3 mouse fibroblasts): > 50 µM
3 | C/C=C/c1oc(C(=O)O)cc(=O)c1OCCCCCOc1ccccc1CCC [EH15301, (E)-2-(Propen-1-yl)-3-[5-(2-propylphenyloxy)pentyloxy]-4-oxo-4H-pyran-6-carboxylic acid] | > 50 µM | > 50 µM | > 50 µM | > 50 µM |  | IC50 (NIH3T3 mouse fibroblasts): > 50 µM
4 | O=C(O)c1cc(=O)c(OCCCCCOc2cccc(Cl)c2)co1 [EH15700, 5-[5-(3-Chlorophenyloxy)pentyloxy]-4-oxo-4H-pyran-2-carboxylic acid] | > 50 µM | > 50 µM | 20 µM | > 50 µM |  | 
5 | C/C=C/c1oc(C(=O)O)cc(=O)c1OCCCCCOc1ccc(Cl)cc1 [EH17401, (E)-3-[5-(4-Chlorophenyloxy)pentyloxy]-2-(propen-1-yl)-4-oxo-4H-pyran-6-carboxylic acid] | > 50 µM | > 50 µM | > 50 µM | > 50 µM |  | IC50 (NIH3T3 mouse fibroblasts): > 50 µM
6 | O=C(O)c1cc(=O)c(OCCCCCOc2ccc(Cl)cc2)co1 [EH17600, 5-[5-(4-Chlorophenyloxy)pentyloxy]-4-oxo-4H-pyran-2-carboxylic acid] | > 50 µM | 17.5 µM | > 25 µM | > 50 µM |  | 
7 | C/C=C/c1oc(C(=O)O)cc(=O)c1OCCCCCOc1cccc(Cl)c1 [EH18401, (E)-3-[5-(3-Chlorophenyloxy)pentyloxy]-2-(propen-1-yl)-4-oxo-4H-pyran-6-carboxylic acid] | > 50 µM | > 50 µM | > 50 µM | > 50 µM |  | IC50 (NIH3T3 mouse fibroblasts): > 50 µM
8 | CCOc1ccccc1OCCCCCOc1coc(CO)cc1=O [EH18601, 5-[5-(2-Ethyloxyphenyloxy)pentyloxy]-2-(hydroxymethyl)-4H-pyran-4-one] | 25 µM | 15 µM | > 50 µM | 50 µM |  | IC50 (NIH3T3 mouse fibroblasts): > 50 µM; Invasion (MDA-MB-231 cells): No effect; Cell architecture modification phase contrast (cell architecture): −
9 | O=C(O)c1cc(=O)c(OCCCCOc2ccc(Cl)c(Cl)c2)co1 [EH20700, 5-[4-(3,4-Dichlorophenyloxy)butyloxy] oxo-4H-pyran-2-carboxylic acid] | > 50 µM | > 50 µM | > 50 µM | > 50 µM |  | 
10 | C/C=C/c1oc(C(=O)O)cc(=O)c1OCCCCCOc1ccc(Cl)c(Cl)c1CCC [EH22501, (E)-3-[5-(3,4-Dichloro-2-propylphenyloxy)pentyloxy]-2-(propen-1-yl)-4-oxo-4H-pyran-6-carboxylic acid] | > 50 µM | > 50 µM | 50 µM | > 50 µM |  | IC50 (NIH3T3 mouse fibroblasts): > 50 µM
11 | CCCc1ccccc1OCCCCCOc1coc(C(=O)O)cc1=O [EH26900, 5-[5-(2-Propylphenyloxy)pentyloxy]-4-oxo-4H-pyran-2-carboxylic acid] | > 50 µM | > 50 µM | > 50 µM | > 50 µM |  | 
12 | CCCc1c(OCCCCCOc2coc(C(=O)O)cc2=O)ccc(Cl)c1Cl [EH27900] | > 50 µM | 40 µM | > 25 µM | > 50 µM |  | 
13 | O=C(OCc1cc(=O)c(OCCCCCn2ccc3ccccc32)co1)c1ccc(Cl)cc1 [EHT 0078, 4-Chloro-benzoic acid 5-(5-indol-1-yl-pentyloxy)-4-oxo-4H-pyran-2-ylmethyl ester] |  |  |  |  | 215 to 220 °C | 
14 | CCNC(=O)OCc1cc(=O)c(OCCCCCn2ccc3ccccc32)co1 [EHT 1120, Ethyl-carbamic acid 5-(5-indol-1-yl-pentyloxy)-4-oxo-4H-pyran-2-ylmethyl ester] |  |  |  |  | 81 to 83 °C | 
15 | O=C(Nc1ccc(Cl)cc1)OCc1cc(=O)c(OCCCCCn2ccc3ccccc32)co1 [EHT 2232, (4-Chloro-phenyl)-carbamic acid 5-(5-indol-1-yl-pentyloxy)-4-oxo-4H-pyran-2-ylmethyl ester] |  |  |  |  | 170 to 171 °C | 
16 | O=C(OCc1cc(=O)c(OCCCCCn2ccc3ccccc32)co1)C1CCCCC1 [EHT 2253, Cyclohexanecarboxylic acid 5-(5-indol-1-yl-pentyloxy)-4-oxo-4H-pyran-2-ylmethyl ester] |  |  |  |  | 62 to 66 °C | 
17 | CCCc1c(Cl)cc(Cl)cc1OCCCCCOc1coc(CO)cc1=O [EHT 2991] |  |  |  |  | 77 to 79 °C | 
18 | C/C=C/c1oc(CO)cc(=O)c1OCCCCCOc1ccc(C#N)c(F)c1 [EHT 4112, (E)-2-Fluoro-4-[5-(6-hydroxymethyl-4-oxo-2-propenyl-4H-pyran-3-yloxy)-pentyloxy]-benzonitrile] |  |  |  |  | 123 to 125 °C | 
19 | O=C(OCc1cc(=O)c(OCCCCCn2ccc3ccccc32)co1)c1ccoc1 [EHT 4167, Furan-3-carboxylic acid 5-(5-indol-1-yl-pentyloxy)-4-oxo-4H-pyran-2-ylmethyl ester] |  |  |  |  | 103 to 105 °C (dec.) | 
20 | O=C(Nc1ccccc1)OCc1cc(=O)c(OCCCCCn2ccc3ccccc32)co1 [EHT 4902, Phenyl-carbamic acid 5-(5-indol-1-yl-pentyloxy)-4-oxo-4H-pyran-2-ylmethyl ester] |  |  |  |  | 150 °C (dec.) | 
21 | C/C=C/c1oc(CO)cc(=O)c1OCCCCCOc1cc(C(F)(F)F)cc(C(F)(F)F)c1 [EHT 5403, (E)-3-[5-(3,5-Bis-trifluoromethyl-phenoxy)-pentyloxy]-6-hydroxymethyl-2-propenyl-4H-pyran-4-one] |  |  |  |  | 90 to 92 °C | 
22 | C=CCc1cc(Cl)ccc1OCCCCCOc1coc(CO)cc1=O [EHT 5431, 5-[5-(2-Allyl-4-chloro-phenoxy)-pentyloxy]-2-hydroxymethyl-4H-pyran-4-one] |  |  |  |  | 98 to 100 °C | 
23 | CCCc1cc(Cl)ccc1OCCCCCOc1coc(CO)cc1=O [EHT 6152, 5-[5-(4-Chloro-2-propyl-phenoxy)pentyloxy]-2-hydroxymethyl-4H-pyran-4-one] |  |  |  |  | 92 to 94 °C | 
24 | O=C(OCc1cc(=O)c(OCCCCCn2ccc3ccccc32)co1)c1ccccc1 [EHT 6517, Benzoic acid 5-(5-indol-1-yl-pentyloxy)-4-oxo-4H-pyran-2-ylmethyl ester] |  |  |  |  | 71 to 73 °C | 
25 | C=CCc1c(Cl)cc(Cl)cc1OCCCCCOc1coc(CO)cc1=O [EHT 6978, 5-[5-(2-Allyl-3,5-dichloro-phenoxy)-pentyloxy]-2-hydroxymethyl-4H-pyran-4-one] |  |  |  |  | 59 to 61 °C | 
26 | C/C=C/c1oc(CO)cc(=O)c1OCCCCCOc1ccc(F)c(F)c1 [EHT 8307] |  |  |  |  | 86 to 87 °C | 
27 | C/C=C/c1oc(CO)cc(=O)c1OCCCCCOc1cc(Cl)cc(Cl)c1CCC [EHT 9916, (E)-3-[5-(3,5-Dichloro-2-propyl-phenoxy)-pentyloxy]-6-hydroxymethyl-2-propenyl-4H-pyran-4-one] |  |  |  |  | 91 to 93 °C | 
